The structures appear in SMILES notation.

The experiment concerns the target T1, rat CB2 receptor (rCB2) (Rattus norvegicus, UniProt Q9QZN9).
T1 sequence (Q9QZN9 1-360): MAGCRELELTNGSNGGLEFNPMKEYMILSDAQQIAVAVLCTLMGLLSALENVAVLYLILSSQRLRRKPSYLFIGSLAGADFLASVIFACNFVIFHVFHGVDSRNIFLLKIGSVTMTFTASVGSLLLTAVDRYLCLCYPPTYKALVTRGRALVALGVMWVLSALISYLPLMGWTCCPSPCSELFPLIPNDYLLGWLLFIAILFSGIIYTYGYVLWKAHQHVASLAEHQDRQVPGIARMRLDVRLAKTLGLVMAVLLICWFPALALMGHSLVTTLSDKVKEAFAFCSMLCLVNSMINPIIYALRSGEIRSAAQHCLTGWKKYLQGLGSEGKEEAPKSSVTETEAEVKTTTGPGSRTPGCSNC
The EC50 is the concentration at which the effect is half-maximal. The molecule `CNC(=O)[C@@H](NC(=O)c1nc(-c2ccc(Cl)cc2F)n2c1CN(C(=O)OC(C)(C)C)CCC2)C(C)(C)C` [Compound 313] gave an EC50 of 10 to 100 nM.
To `CNC(=O)[C@@H](NC(=O)c1nc(-c2ccccc2)n2c1CN(S(C)(=O)=O)CC2)C(C)(C)C` [Compound 92, (S)-N-(3,3-dimethyl-1-(methylamino)-1-oxobutan-2-yl)-7-(methylsulfonyl)-3-phenyl-5,6,7,8-tetrahydroimidazo[1,5-a]pyrazine-1-carboxamide] belongs 10 to 100 nM; to `CC(C)(C)CNC(=O)c1nc(-c2ccccc2)n2c1CN(S(=O)(=O)c1ccccc1)CC2` [Compound 104, N-neopentyl-3-phenyl-7-(phenylsulfonyl)-5,6,7,8-tetrahydroimidazo[1,5-a]pyrazine-1-carboxamide], 10 to 100 nM.
To `CNC(=O)[C@@H](NC(=O)c1nc(-c2ccc(Cl)cc2)n2c1CN(C)CC2)C(C)(C)C` [Compound 49, (S)-3-(4-chlorophenyl)-N-(3,3-dimethyl-1-(methylamino)-1-oxobutan-2-yl)-7-methyl-5,6,7,8-tetrahydroimidazo[1,5-a]pyrazine-1-carboxamide] belongs 10 to 100 nM.
Next, `CNC(=O)[C@@H](NC(=O)c1nc(-c2ccc(Cl)cc2F)n2c1CN(CC(C)C)CCC2)C(C)(C)C` [Compound 322, (S)-3-(4-chloro-2-fluorophenyl)-N-(3,3-dimethyl-1-(methylamino)-1-oxobutan-2-yl)-8-isobutyl-6,7,8,9-tetrahydro-5H-imidazo[1,5-a][1,4]diazepine-1-carboxamide]: 10 to 100 nM; `CNC(=O)[C@@H](NC(=O)c1nc(-c2ccccc2)n2c1CN(S(=O)(=O)c1ccc(C#N)cc1)CC2)C(C)(C)C` [Compound 108, (S)-7-(4-cyanophenylsulfonyl)-N-(3,3-dimethyl-1-(methylamino)-1-oxobutan-2-yl)-3-phenyl-5,6,7,8-tetrahydroimidazo[1,5-a]pyrazine-1-carboxamide]: 10 to 100 nM.
As for `CC(C)CN1CCn2c(-c3ccccc3)nc(C(=O)N[C@H](C)C3CCCCC3)c2C1` [Compound 163, (R)-N-(1-cyclohexylethyl)-7-isobutyl-3-phenyl-5,6,7,8-tetrahydroimidazo[1,5-a]pyrazine-1-carboxamide], the EC50 was 0.1 to 10 nM.
In turn, `Cc1noc([C@@H](NC(=O)c2nc(-c3ccccc3)n3c2CN(C(C)C)CC3)C(C)(C)C)n1` [Compound 89, (S)-N-(2,2-dimethyl-1-(3-methyl-1,2,4-oxadiazol-5-yl)propyl)-7-isopropyl-3-phenyl-5,6,7,8-tetrahydrimidazo[1,5-a]pyrazine-1-carboxamide] yielded a concentration for a half-maximal effect (EC50) of 0.1 to 10 nM.
Next, `CNC(=O)[C@@H](NC(=O)c1nc(-c2cc(C)ccc2F)n2c1CN(C)CC2)C(C)(C)C` [Compound 251, (S)-N-(3,3-dimethyl-1-(methylamino)-1-oxobutan-2-yl)-3-(2-fluoro-5-methylphenyl)-7-methyl-5,6,7,8-tetrahydroimidazo[1,5-a]pyrazine-1-carboxamide]: 10 to 100 nM; `CC(C)CN1CCn2c(-c3ccccc3)nc(C(=O)N[C@@H](C)c3ccccc3)c2C1` [Compound 145, (S)-7-isobutyl-3-phenyl-N-(1-phenylethyl)-5,6,7,8-tetrahydroimidazo[1,5-a]pyrazine-1-carboxamide]: 10 to 100 nM.
With `CCN1CCn2c(-c3ccccc3)nc(C(=O)N[C@H](C(=O)NC)C(C)(C)C)c2C1` [Compound 149, (S)-N-(3,3-dimethyl-1-(methylamino)-1-oxobutan-2-yl)-7-ethyl-3-phenyl-5,6,7,8-tetrahydroimidazo[1,5-a]pyrazine-1-carboxamide], the EC50 lay within 10 to 100 nM.
Next, `COC(=O)[C@@H](NC(=O)c1nc(-c2ccc(C)cc2F)n2c1CN(CC1CC1)CCC2)C(C)(C)C` [Compound 470, (S)-methyl 2-(8-(cyclopropylmethyl)-3-(2-fluoro-4-methylphenyl)-6,7,8,9-tetrahydro-5H-imidazo[1,5-a][1,4]diazepine-1-carboxamido)-3,3-dimethylbutanoate]: 10 to 100 nM.
To `CC(C)CN1CCn2c(-c3ccccc3)nc(C(=O)NCC(C)(C)C)c2C1` [Compound 58, 7-isobutyl-N-neopentyl-3-phenyl-5,6,7,8-tetrahydroimidazo[1,5-a]pyrazine-1-carboxamide] belongs 10 to 100 nM; to `CCc1nc(C(=O)N[C@H](C(=O)NC)C(C)(C)C)c2n1CCN(C)C2` [Compound 310, (S)-N-(3,3-dimethyl-1-(methylamino)-1-oxobutan-2-yl)-3-ethyl-7-methyl-5,6,7,8-tetrahydroimidazo[1,5-a]pyrazine-1-carboxamide], 10 to 100 nM; to `CC(C)CN1CCn2c(-c3ccccc3)nc(C(=O)Nc3ccccc3)c2C1` [Compound 150, 7-isobutyl-N,3-diphenyl-5,6,7,8-tetrahydroimidazo[1,5-a]pyrazine-1-carboxamide], 10 to 100 nM.
Consider `CNC(=O)[C@@H](NC(=O)c1nc(-c2cccc(C(F)(F)F)c2)n2c1CN(C)CCC2)C(C)(C)C` [Compound 438, (S)-N-(3,3-dimethyl-1-(methylamino)-1-oxobutan-2-yl)-8-methyl-3-(3-(trifluoromethyl)phenyl)-6,7,8,9-tetrahydro-5H-imidazo[1,5-a][1,4]diazepine-1-carboxamide], for which the EC50 fell in the range of 10 to 100 nM.
Next, `CC(C)(C)c1noc([C@@H](NC(=O)c2nc(-c3ccccc3)n3c2CN(C2CC2)CC3)C(C)(C)C)n1` [Compound 284, (S)-N-(1-(3-tert-butyl-1,2,4-oxadiazol-5-yl)-2,2-dimethylpropyl)-7-cyclopropyl-3-phenyl-5,6,7,8-tetrahydroimidazo[1,5-a]pyrazine-1-carboxamide]: 0.1 to 10 nM.
`CC(C)CN1CCn2c(-c3ccccc3)nc(C(=O)NN3CCCCC3)c2C1` [Compound 155, 7-isobutyl-3-phenyl-N-(piperidin-1-yl)-5,6,7,8-tetrahydroimidazo[1,5-a]pyrazine-1-carboxamide] registered an EC50 of 0.1 to 10 nM.
Next, `C[C@@H](NC(=O)c1nc(-c2ccccc2)n2c1CN(C(=O)C1CCOC1)CC2)C1CCCCC1` (stereo partly drawn) [Compound 139, N-((R)-1-cyclohexylethyl)-3-phenyl-7-(tetrahydrofuran-3-carbonyl)-5,6,7,8-tetrahydroimidazo[1,5-a]pyrazine-1-carboxamide]: 10 to 100 nM; `CNC(=O)[C@@H](NC(=O)c1nc(/C=C/Cc2ccccc2)n2c1CN(C)CCC2)C(C)(C)C` [Compound 458, (S,E)-N-(3,3-dimethyl-1-(methylamino)-1-oxobutan-2-yl)-8-methyl-3-(3-phenylprop-1-enyl)-6,7,8,9-tetrahydro-5H-imidazo[1,5-a][1,4]diazepine-1-carboxamide]: 10 to 100 nM.
To `C[C@@H](NC(=O)c1nc(-c2ccccc2)n2c1CN(C(=O)C1CC1)CC2)C1CCCCC1` [Compound 132, (R)-N-(1-cyclohexylethyl)-7-(cyclopropanecarbonyl)-3-phenyl-5,6,7,8-tetrahydroimidazo[1,5-a]pyrazine-1-carboxamide] belongs 10 to 100 nM; to `CNC(=O)[C@@H](NC(=O)c1nc(-c2ccccc2)n2c1CN(c1cncc(Cl)n1)CC2)C(C)(C)C` [Compound 300, (S)-7-(6-chloropyrazin-2-yl)-N-(3,3-dimethyl-1-(methylamino)-1-oxobutan-2-yl)-3-phenyl-5,6,7,8-tetrahydroimidazo[1,5-a]pyrazine-1-carboxamide], 10 to 100 nM; to `CNC(=O)[C@@H](NC(=O)c1nc(-c2ccccc2)n2c1CN(C(=O)C(C)(C)C)CC2)C(C)(C)C` [Compound 190, (S)-N-(3,3-dimethyl-1-(methylamino)-1-oxobutan-2-yl)-3-phenyl-7-pivaloyl-5,6,7,8-tetrahydroimidazo[1,5-a]pyrazine-1-carboxamide], 10 to 100 nM.
To `CNC(=O)[C@@H](NC(=O)c1nc(-c2ccc(F)c(C)c2)n2c1CNCC2)C(C)(C)C` [Compound 7, (S)-N-(3,3-dimethyl-1-(methylamino)-1-oxobutan-2-yl)-3-(4-fluoro-3-methylphenyl)-5,6,7,8-tetrahydroimidazo[1,5-a]pyrazin-1-carboxamide] belongs 10 to 100 nM.
In turn, `CC(C)CCNC(=O)c1nc(-c2ccc(Cl)cc2)n2c1CN(C(=O)C1CC1)CC2` [Compound 131, 3-(4-chlorophenyl)-7-(cyclopropanecarbonyl)-N-isopentyl-5,6,7,8-tetrahydroimidazo[1,5-a]pyrazine-1-carboxamide] came in with an EC50 of 10 to 100 nM.
To `CC(C)CN1CCn2c(-c3ccccc3)nc(C(=O)NC3C4(C)CCC(C4)C3(C)C)c2C1` (centres unmarked) [Compound 142, 7-isobutyl-3-phenyl-N-(1,3,3-trimethylbicyclo[2.2.1]heptan-2-yl)-5,6,7,8-tetrahydroimidazo[1,5-a]pyrazine-1-carboxamide] belongs 10 to 100 nM; to `CC(C)CN1CCn2c(-c3ccccc3)nc(C(=O)N[C@H](C(=O)N(C)C)C(C)(C)C)c2C1` [Compound 80, (S)-N-(1-(dimethylamino)-3,3-dimethyl-1-oxobutan-2-yl)-7-isobutyl-3-phenyl-5,6,7,8-tetrahydroimidazo[1,5-a]pyrazine-1-carboxamide], 10 to 100 nM.
To `CNC(=O)[C@@H](NC(=O)c1nc(-c2ccccc2)n2c1CN(Cc1ccco1)CC2)C(C)(C)C` [Compound 64, (S)-N-(3,3-dimethyl-1-(methylamino)-1-oxobutan-2-yl)-7-(furan-2-ylmethyl)-3-phenyl-5,6,7,8-tetrahydroimidazo[1,5-a]pyrazine-1-carboxamide] belongs 10 to 100 nM.
To `CC(C)CCNC(=O)c1nc(-c2ccc(Cl)cc2)n2c1CN(CC(C)C)CC2` [Compound 157, 3-(4-chlorophenyl)-7-isobutyl-N-isopentyl-5,6,7,8-tetrahydroimidazo[1,5-a]pyrazine-1-carboxamide] belongs 10 to 100 nM.

The record behind these values is patent publication US8431565B2 (priority 2007, dated 2013).
